# ChEMBL document CHEMBL1201862, “PubChem BioAssay data set” (2004)
# The source made the active and inactive calls.
# What was measured:
# [1] = target: fMet-Leu-Phe receptor (Homo sapiens, UniProt P21462); test: FPR ligands, dose response (AID 519); format: functional
# [2] = test system: Streptococcus; test: Group A Streptococcus viability loss, dose response, counter-screen for streptokinase expression inhibitor project, luminescence, BacTiterGlo (AID 1915); format: functional, organism-based;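 also: potency for reduction of bacterial viability or growth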
# [3] = target: T1, Streptokinase A (Streptococcus pyogenes serotype M1, UniProt P10520); test: S. pyogenes streptokinase expression inhibitors, potency, dose response, plasminogen activation absorbance, OD405 (AID 1914); format: functional, Streptococcus pyogenes M1 GAS;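 also: secreted streptokinase activity via plasminogen activation per viability signal from cell pellet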
# T1 sequence (P10520 whole entry): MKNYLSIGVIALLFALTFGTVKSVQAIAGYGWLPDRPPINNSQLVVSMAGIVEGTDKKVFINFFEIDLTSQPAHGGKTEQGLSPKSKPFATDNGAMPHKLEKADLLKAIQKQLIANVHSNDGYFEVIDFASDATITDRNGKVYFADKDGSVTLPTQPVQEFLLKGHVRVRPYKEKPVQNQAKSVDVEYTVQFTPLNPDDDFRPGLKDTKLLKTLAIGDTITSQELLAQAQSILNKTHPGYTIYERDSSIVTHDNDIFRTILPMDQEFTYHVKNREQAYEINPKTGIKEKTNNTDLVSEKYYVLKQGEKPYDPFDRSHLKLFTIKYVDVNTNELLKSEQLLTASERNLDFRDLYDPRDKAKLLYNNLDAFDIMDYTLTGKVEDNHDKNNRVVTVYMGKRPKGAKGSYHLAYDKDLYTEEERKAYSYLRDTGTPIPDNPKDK
# [4] = target: Disintegrin and metalloproteinase domain-containing protein 17 (Homo sapiens, UniProt P78536); test: ADAM17 protease inhibitors, dose response, counter-screen for ADAM10 exosite inhibitor project, biochemical, quenched FRET substrate (AID 743253)
# [5] = test system: Streptococcus sp. 'group A'; test: growth inhibition of control SK(-) GAS strain, dose response, counter-screen for streptokinase expression inhibitor project, luminescence, kanamycin, BacTiterGlo, confirmation (AID 1900); format: functional, organism-based
# [6] = target: Transthyretin (Homo sapiens, UniProt P02766); test: Luminescence-based cell-based high throughput dose response assay to identify activators of Transthyretin (TTR) transcription.; format: functional
# [7] = target: T2, Methionyl-tRNA synthetase, putative (Trypanosoma brucei brucei, UniProt Q38C91); format: functional, Trypanosoma brucei brucei strain 927/4 GUTat10.1
# T2 sequence (Q38C91 whole entry): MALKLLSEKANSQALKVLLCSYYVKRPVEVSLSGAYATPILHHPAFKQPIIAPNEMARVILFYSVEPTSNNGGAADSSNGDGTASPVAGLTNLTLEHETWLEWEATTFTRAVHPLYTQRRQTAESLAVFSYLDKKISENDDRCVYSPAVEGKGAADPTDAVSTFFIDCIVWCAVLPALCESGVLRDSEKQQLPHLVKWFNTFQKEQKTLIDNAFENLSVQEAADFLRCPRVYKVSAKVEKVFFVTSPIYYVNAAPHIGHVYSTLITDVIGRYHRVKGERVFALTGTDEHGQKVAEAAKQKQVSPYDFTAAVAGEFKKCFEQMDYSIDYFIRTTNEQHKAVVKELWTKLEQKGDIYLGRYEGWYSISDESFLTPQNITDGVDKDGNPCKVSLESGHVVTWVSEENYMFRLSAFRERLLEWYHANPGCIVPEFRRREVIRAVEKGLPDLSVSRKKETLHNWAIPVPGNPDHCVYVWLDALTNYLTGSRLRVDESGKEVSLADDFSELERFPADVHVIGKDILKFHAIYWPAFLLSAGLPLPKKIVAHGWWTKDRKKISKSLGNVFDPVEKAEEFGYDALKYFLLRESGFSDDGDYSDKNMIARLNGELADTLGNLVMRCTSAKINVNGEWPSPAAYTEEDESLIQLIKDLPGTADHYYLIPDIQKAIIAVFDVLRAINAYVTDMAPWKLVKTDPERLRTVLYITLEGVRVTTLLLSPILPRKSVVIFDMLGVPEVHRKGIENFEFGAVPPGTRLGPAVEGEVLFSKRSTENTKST
# [8] = target: T2, Methionyl-tRNA synthetase, putative; format: functional, Trypanosoma brucei brucei strain 927/4 GUTat10.1; remark: listed apart in the source
# [9] = Late stage counterscreen for inhibitors of Trypanosoma brucei methionyl tRNA synthetase (MetRS): Luminescence-based cell-based high throughput dose response assay to identify compounds that are cytotoxic to Jurkat human T lymphocyte cells.; format: functional
# [10] = Counterscreen for inhibitors of Trypanosoma brucei methionyl tRNA synthetase (MetRS): Luminescence-based cell-based high throughput dose response assay to identify compounds that are cytotoxic to Jurkat human T lymphocyte cells.; format: functional
# [11] = target: Cytochrome P450 3A4 (Homo sapiens, UniProt P08684);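 also: CYP3A4 tested as one member of a cytochrome P450 panel screen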
# [12] = target: T3, Corticotropin-releasing factor receptor 2/Corticotropin-releasing factor-binding protein (Homo sapiens, UniProt P24387+Q13324); test: activators of CRF receptor 2 with binding protein – uHTS hits, confirmation (AID 602473); format: functional; conditions: read-out: EC50_Mean
# T3 sequence (Q13324 whole entry): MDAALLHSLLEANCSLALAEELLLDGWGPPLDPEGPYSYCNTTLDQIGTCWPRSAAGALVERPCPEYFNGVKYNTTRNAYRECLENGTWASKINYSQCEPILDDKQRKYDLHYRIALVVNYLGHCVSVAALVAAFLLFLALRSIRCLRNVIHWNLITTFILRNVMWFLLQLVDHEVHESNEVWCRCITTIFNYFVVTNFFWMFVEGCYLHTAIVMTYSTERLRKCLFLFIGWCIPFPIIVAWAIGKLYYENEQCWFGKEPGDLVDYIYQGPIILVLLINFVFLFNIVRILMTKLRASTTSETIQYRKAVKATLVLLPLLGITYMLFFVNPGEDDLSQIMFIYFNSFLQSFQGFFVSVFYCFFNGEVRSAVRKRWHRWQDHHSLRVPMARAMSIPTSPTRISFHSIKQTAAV
# T3 sequence (P24387 whole entry): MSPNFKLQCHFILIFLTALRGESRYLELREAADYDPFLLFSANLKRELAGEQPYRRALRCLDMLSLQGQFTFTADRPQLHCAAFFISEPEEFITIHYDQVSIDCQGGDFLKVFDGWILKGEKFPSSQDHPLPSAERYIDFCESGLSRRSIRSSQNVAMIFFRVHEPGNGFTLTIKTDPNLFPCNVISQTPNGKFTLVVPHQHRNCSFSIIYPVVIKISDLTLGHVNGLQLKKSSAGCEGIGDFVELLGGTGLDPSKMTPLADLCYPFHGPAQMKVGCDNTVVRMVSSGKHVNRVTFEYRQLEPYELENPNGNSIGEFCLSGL
# [13] = test system: HEK293; test: HEK293T cell cytotoxicity, dose response, cytotoxicity control, ATP luminescence, cherry-pick samples (AID 687005); format: functional, cell-based; conditions: Homo sapiens;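 also: cells exposed to compound for 48 hours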
# [14] = CRF-BP/CRF-R2 complex antagonists, dose response, cell-based, uHTS hits, 384-well (AID 651639); format: functional, Homo sapiens; conditions: read-out: IC50_Mean
# [15] = HEK293 Cytotoxicity Assay Measured in Cell-Based System Using Plate Reader - 7071-01_Inhibitor_Dose_CherryPick_Activity_Set2.; format: functional
# [16] = target: Prothrombin (Homo sapiens, UniProt P00734); test: Thrombin 1536 HTS Dose Response Confirmation. [Related pubchem assays: 1046 (Thrombin 1536 HTS; hits were confirmed in this assay)]; format: functional
# [17] = target: T3, Corticotropin-releasing factor receptor 2/Corticotropin-releasing factor-binding protein; test: Dose Response confirmation of uHTS hits for small molecule antagonists of the CRF-binding protein and CRF-R2 receptor complex.; format: functional; conditions: read-out: IC50_Mean
# [18] = cells; format: functional, cell-based
# [19] = cells; format: functional, cell-based; remark: listed apart in the source
# [20] = target: T4, Oxysterols receptor LXR-beta (Homo sapiens, UniProt P55055); format: functional, cell-based
# T4 sequence (P55055 whole entry): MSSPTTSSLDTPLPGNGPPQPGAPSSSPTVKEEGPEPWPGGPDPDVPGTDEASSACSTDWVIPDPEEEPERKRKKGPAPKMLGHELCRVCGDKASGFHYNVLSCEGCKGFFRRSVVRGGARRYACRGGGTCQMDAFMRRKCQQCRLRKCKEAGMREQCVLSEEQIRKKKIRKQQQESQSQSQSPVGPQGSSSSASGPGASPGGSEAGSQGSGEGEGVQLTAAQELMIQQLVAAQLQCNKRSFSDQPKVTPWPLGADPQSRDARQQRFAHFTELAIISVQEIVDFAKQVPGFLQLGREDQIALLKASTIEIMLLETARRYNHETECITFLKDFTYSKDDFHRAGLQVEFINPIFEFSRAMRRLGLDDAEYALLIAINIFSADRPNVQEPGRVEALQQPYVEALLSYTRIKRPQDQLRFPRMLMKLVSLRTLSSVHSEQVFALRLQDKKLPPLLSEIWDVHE
# [21] = A549 cell cytotoxicity, dose response, cytotoxicity control, plate reader, cherry-pick, antagonist series (AID 743412); format: functional, cell-based
# [22] = target: T5, Microphthalmia-associated transcription factor (Homo sapiens, UniProt O75030); test: TRPM1 promoter luciferase signal decrease, dose response, MITF inhibitor project, cell-based, SK-MEL-5, cherry-picked, set 3 (AID 493073); format: functional
# T5 sequence (O75030 whole entry): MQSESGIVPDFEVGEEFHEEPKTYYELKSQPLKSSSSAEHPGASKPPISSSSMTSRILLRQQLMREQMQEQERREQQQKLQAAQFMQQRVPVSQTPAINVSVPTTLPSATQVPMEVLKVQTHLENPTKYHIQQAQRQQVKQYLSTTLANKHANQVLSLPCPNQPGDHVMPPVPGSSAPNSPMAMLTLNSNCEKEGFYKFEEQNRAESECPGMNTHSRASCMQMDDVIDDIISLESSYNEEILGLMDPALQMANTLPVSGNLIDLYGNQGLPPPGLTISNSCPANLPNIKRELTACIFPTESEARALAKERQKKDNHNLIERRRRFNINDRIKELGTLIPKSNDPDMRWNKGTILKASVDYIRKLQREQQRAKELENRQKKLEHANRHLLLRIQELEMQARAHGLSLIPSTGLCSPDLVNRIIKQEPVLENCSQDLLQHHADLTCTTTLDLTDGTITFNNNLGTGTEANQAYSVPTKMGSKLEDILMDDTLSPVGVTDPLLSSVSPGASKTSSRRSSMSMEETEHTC
# [23] = HEK293 cell cytotoxicity, dose response, cytotoxicity control, plate reader, cherry-picked samples (AID 743446); format: functional, cell-based
# [24] = MC4R antagonists, dose response, counter-screen for LGR2 antagonist project, cell-based, plate reader, cherry pick (AID 743444); format: functional;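 also: transfected HEK 293 cells stimulated with alpha-MSH peptide; potency of inhibitors of the alpha-MSH evoked signal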
# [25] = HepG2 cell cytotoxicity, dose response, cytotoxicity control, plate reader, cherry-pick, antagonist series (AID 743416); format: functional, cell-based
# [26] = LGR2 antagonists, dose response, cell-based, HEK293, CRE-luciferase reporter, cherry pick, set 2 (AID 743343); format: functional;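 also: transfected cells were stimulated with diluted bursicon conditioned medium after compound addition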
# [27] = microbe, parasite or virus in culture; format: functional; conditions: Mycobacterium tuberculosis
# [28] = HEp-2 cell cytotoxicity, dose response, cytotoxicity control for RSV inhibitor project, HTS (AID 2410); format: functional; conditions: human respiratory syncytial virus
# [29] = target: Dual specificity tyrosine-phosphorylation-regulated kinase 1A (Rattus norvegicus, UniProt Q63470); format: biochemical, Homo sapiens
# [30] = target: T4, Oxysterols receptor LXR-beta; format: functional, cell-based; remark: listed apart in the source
# [31] = cells
# [32] = HepG2 cell cytotoxicity, dose response, cytotoxicity control, cherry-picked samples (AID 1159577); format: functional, cell-based
# [33] = P. falciparum Dd2 growth inhibitors, dose response, SYBR Green, cherry-picked samples (AID 1159567); format: functional, cell-based
# Sequence of fMet-Leu-Phe receptor (P21462 whole entry): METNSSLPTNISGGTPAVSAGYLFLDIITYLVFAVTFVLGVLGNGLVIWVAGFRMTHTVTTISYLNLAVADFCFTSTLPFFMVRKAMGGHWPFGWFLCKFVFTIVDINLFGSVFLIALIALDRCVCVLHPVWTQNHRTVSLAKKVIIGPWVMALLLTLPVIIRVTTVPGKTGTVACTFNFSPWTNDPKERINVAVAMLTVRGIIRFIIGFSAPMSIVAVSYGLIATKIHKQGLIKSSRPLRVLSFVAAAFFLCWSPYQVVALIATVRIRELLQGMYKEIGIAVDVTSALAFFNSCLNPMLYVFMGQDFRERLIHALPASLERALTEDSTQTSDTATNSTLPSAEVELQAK
# Sequence of Disintegrin and metalloproteinase domain-containing protein 17 (P78536 whole entry, the tested form may be a part): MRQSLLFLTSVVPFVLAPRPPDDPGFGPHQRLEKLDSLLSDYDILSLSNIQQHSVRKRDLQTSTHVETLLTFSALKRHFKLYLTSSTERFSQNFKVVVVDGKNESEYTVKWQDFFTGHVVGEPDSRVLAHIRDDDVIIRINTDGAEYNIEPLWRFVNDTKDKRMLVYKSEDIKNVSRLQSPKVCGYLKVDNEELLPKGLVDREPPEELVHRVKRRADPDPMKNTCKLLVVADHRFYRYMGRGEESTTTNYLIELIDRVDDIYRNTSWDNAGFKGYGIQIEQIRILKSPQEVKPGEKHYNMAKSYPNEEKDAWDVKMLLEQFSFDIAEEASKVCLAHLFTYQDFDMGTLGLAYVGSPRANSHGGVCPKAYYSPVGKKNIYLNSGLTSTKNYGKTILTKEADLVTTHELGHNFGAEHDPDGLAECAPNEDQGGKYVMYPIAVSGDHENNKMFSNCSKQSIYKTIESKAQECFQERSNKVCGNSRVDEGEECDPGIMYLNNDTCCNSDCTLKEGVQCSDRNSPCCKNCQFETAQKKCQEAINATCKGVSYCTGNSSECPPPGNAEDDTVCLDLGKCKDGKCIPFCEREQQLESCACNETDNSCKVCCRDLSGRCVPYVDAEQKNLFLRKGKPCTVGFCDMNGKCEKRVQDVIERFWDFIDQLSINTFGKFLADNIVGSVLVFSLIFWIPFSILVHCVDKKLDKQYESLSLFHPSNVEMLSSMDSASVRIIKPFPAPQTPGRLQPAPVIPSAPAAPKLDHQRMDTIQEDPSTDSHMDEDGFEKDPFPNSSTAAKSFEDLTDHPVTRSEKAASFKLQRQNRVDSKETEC
# Sequence of Cytochrome P450 3A4 (P08684 whole entry): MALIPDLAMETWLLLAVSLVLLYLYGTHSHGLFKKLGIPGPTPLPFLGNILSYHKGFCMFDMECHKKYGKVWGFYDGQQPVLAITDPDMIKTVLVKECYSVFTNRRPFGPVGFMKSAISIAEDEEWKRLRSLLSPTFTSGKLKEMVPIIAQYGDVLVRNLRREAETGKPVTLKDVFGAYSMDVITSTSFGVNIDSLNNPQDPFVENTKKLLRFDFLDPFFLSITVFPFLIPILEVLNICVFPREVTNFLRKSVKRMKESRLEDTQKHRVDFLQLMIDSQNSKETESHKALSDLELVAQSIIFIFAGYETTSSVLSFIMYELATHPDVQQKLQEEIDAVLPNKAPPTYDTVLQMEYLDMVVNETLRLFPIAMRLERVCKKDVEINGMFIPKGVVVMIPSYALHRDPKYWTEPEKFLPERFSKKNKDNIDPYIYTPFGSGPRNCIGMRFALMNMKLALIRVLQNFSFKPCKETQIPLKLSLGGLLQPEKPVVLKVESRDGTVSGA
structure (smiles),measurement,setting,value
Cc1ccc(Nc2nc(C3CC3)cs2)cc1,Ki,[1],43.1 µM (inactive)
Cc1c(C)c2cc(Cl)c(O)c(CN3CCCCC3)c2oc1=O,Ki,[1],> 66.7 µM (inactive)
O=[N+]([O-])c1cccnc1N1CCC(c2cc(-c3ccc(Cl)cc3)[nH]n2)CC1,EC50,[2],9.6 µM (active)
same,EC50,[3],33.3 µM (active)
same,IC50,[4],> 69.5 µM (inactive)
same,EC50,[5],5.14 µM (active)
COc1ccc(-c2noc(-c3cccs3)n2)cc1OC,EC50,[6],> 167 µM (inactive)
O=C(NCc1nc2ccccc2[nH]1)C1=C[C@@H](C2CC2)C[C@@H](OCc2ccc(CO)cc2)O1,IC50,[7],1.62 µM (active)
same,IC50,[8],0.811 µM (active)
same,IC50,[9],> 83.3 µM (inactive)
same,IC50,[10],83.3 µM (inactive)
Cc1ccccc1-n1ncc2c(SCC(=O)N3c4ccccc4CC3C)ncnc21 (stereo unspecified),AC50,[11],inconclusive
same,EC50,[12],> 53 µM (inactive)
same,AC50,[13],15.4 µM (active)
same,IC50,[14],11.7 µM (active)
same,AC50,[15],15.4 µM (active)
same,IC50,[16],> 50 µM (not active)
same,IC50,[17],11 µM (active)
O=C(NCC1CCCO1)c1cc(-c2ccccc2F)no1 (stereo unspecified),EC50,[18],43.8 µM (active)
same,EC50,[19],190 µM (active)
same,EC50,[20],> 67.5 µM (inactive)
CC1(C)CC(NC(=O)c2ccc(Cl)c(S(=O)(=O)N(Cc3ccccc3)c3ccccc3)c2)CC(C)(C)N1,AC50,[21],7.96 µM (active)
same,AC50,[22],10.3 µM (active)
same,AC50,[23],15.7 µM (active)
same,AC50,[24],29.4 µM (active)
same,AC50,[25],8.14 µM (active)
same,AC50,[26],19.4 µM (active)
same,CC50,[27],12.7 µM (active)
Cc1nc2ccc(Br)cc2c(O)c1CN1CCCCCC1,IC50,[7],6.91 µM (active)
same,IC50,[8],4.16 µM (active)
same,IC50,[9],> 83.3 µM (inactive)
same,IC50,[10],83.3 µM (inactive)
c1ccc([C@H]2CN3C(=N2)Sc2ccccc23)cc1,EC50,[20],> 67.1 µM (inactive)
Oc1ccc(-c2nccc(-c3cccs3)n2)cc1,CC50,[28],27.9 µM (active)
same,AC50,[29],6.5 µM (active)
same,EC50,[30],> 67.6 µM (inactive)
same,EC50,[31],> 67.6 µM (inactive)
COc1ccc2c3c(n(C)c2c1)[C@H](CO)NCC31CN(Cc2ccc(-c3ccccn3)cc2)C1,AC50,[32],11.6 µM (active)
same,AC50,[33],1.15 µM (active)
C[C@@H]1CN([C@@H](C)CO)C(=O)c2c(c3ccccc3n2C)-c2ccccc2CO[C@@H]1CN(C)Cc1cccc(F)c1,AC50,[32],23.5 µM (active)
same,AC50,[33],3.5 µM (active)
